Experimental findings from patent US11602514B2, “Medicament having anti-inflammatory bowel disease function, and preparation method therefor and application thereof” (SUZHOU PHARMAVAN CO., LTD, priority 2018, dated 2023) are described below.

In data set [1] the test system is mouse macrophages RAW264.7. The experiment in a line: effect on proliferation activity of mouse macrophages RAW264.7. Type of data set: cell-based. To be noted: n=3, FIG. 4.
For data set [2], the system named is IL-6 secreted by mouse macrophages RAW264.7 induced by LPS. Briefly: IL-6 secreted by LPS-induced RAW264.7 macrophages (ELISA). To be noted: LPS 100 ng/mL, 24 h; FIG. 5. Type of data set: cell-based. The protocol:
(§1) Effects of myricanol derivatives on the expression of inflammatory factors such as IL-6, TNF-α, PEG2 secreted by a mouse macrophage cell strain RAW 264.7 induced by bacterial lipopolysaccharide (hereinafter referred to as LPS) stimulus: A pre-prepared cell suspension was inoculated in a 96-well plate at 15000 cells/well and 100 μl/well and cultured overnight in an incubator with 5% CO2 at 37° C. At 80% cell confluence, the original culture medium was discarded, and each well was added with 100 μl of prepared drug solution to be tested with a different concentration, cultured for 1 h, and then added with a LPS solution, where the final concentration of LPS in the culture system was 100 ng/mL. Each concentration was set with 3 parallel wells, and a cell control group (no drug and no solvent) and a blank medium control group (no cells, a well for zero adjustment) were set. They were cultured for another 24 h. Cell culture supernatants were aspirated, and an R&D ELISA detection kit (M6000B; MTA00B; VAL601) was used for detecting the expression of the inflammatory factors such as IL-6, TNF-α, and PEG2 in each group. Cell proteins were collected, and a […] method was used for detecting COX-2 protein expression in each group.

Data set [3] has as its system PGE2 secreted by mouse macrophages RAW264.7 induced by LPS. Briefly: PGE2 secreted by LPS-induced RAW264.7 macrophages (ELISA). Type of data set: cell-based. To be noted: for inhibition of PGE2 secreted by RAW264.7 induced by LPS: LPS 100 ng/mL, 24 h, FIGS. 7 and 9. How it is done:
as §1
(In general: In an ELISA, binding on a coated surface is turned into a signal by an enzyme label.)

Data set [4] concerns COX2 protein expressed by mouse macrophages RAW264.7. Briefly: COX2 protein expression in LPS-induced RAW264.7 macrophages (blot). It counts as cell-based. The conditions noted are these: FIG. 8. How it is done:
as §1

Data set [5] relates to SD rats. The experiment in a line: acute toxicity, single oral dose. To be noted: single intragastric administration, 14 days observation. It counts as in vivo. An excerpt:
Trial method: 30 SD rats, half male and half female, were used. The average weight was 160-200 g for female rats and 180-220 g for male rats when grouped. An individual weight should be within ±20% of the average weight. Before the test, animals needed to accommodate to the environment for at least 5 days, and healthy rats (female rats should be not pregnant) were selected as test animals. Matter detected during the accommodation period mainly was: whether the rats were consistent with quality indexes required in the order; detection of general conditions; and whether the weight was within the weight range required by the test. Unqualified abnormal animals were excluded from the test. A single dosage was orally administered to rats at a low, medium, or high dose. […] A control group was set with the oral administration of the same volume of solvent.
The rats were observed about 0-2 h and 4-6 h after each administration. If a toxicity symptom occurs, the rats may be observed more times. (2) Gross anatomical observation: on the 14th day of the test, all surviving rats in each group were dissected and observed, and for administration sites and gross dissection, abnormal organs and tissues which were observed and found to be potentially related to test samples were photographed and recorded. (3) Disposal of dying animals: status of rats and observation time were recorded, and their weights were measured. (4) Disposal of dead animals: the time of death or when a rat was found dead were recorded. The rat was measured for weight before quickly dissected for gross observation and speculated for a cause of death.

Entries after “also recorded” stand apart in the source; their conditions may differ.

With 5-n-propoxy myricanol [compound B], the “effect on proliferation activity of mouse macrophages RAW264.7” value (“effect on proliferation activity” for short) in data set [1] (30 μM) is on record as “no significant effects”. Moreover, the “inhibition of LPS-induced IL-6 secretion of RAW264.7 cells” value (“inhibition … of RAW264.7 cells” for short) in data set [2] was “very strong effects of inhibiting”. In addition, the “inhibition of PGE2 secreted by RAW264.7 induced by LPS” value (shortened to “inhibition of PGE2 secreted”) in data set [3] is “significant effect of inhibiting PGE2; also recorded: strong ability to inhibit”. For the same molecule, the “inhibition of protein expression of IBD-related COX2” value (shortened to “inhibition … of IBD-related COX2”) in data set [4] is reported as “can inhibit”.

As to `C=CCOc1ccc2cc1-c1cc(c(OCC=C)c(OC)c1OC)CCCCC(O)CC2` (centres unmarked) [compound D, 5,17-diallyloxy myricanol], the “effect on proliferation activity” value in data set [1] (30 μM) was “no significant effects”.

For `COc1c2cc(c(OC(C)=O)c1OC)CCCCC(O)CCc1ccc(O)c-2c1` (centres unmarked) [compound G, 5-acetoxy myricanol], the “effect on proliferation activity” value in data set [1] (40 μM) is given as “no significant effects”. The “inhibition … of RAW264.7 cells” value in data set [2] is “very strong effects of inhibiting”. Besides, in data set [3], the “inhibition of PGE2 secreted” value is “significant effect of inhibiting PGE2; also recorded: strong ability to inhibit”. Also, the “COX2 protein expression inhibition compared with myricanol” value in data set [4] is recorded as “better inhabitation effects than myricanol”. Moreover, the “inhibition … of IBD-related COX2” value in data set [4] is listed as “can inhibit”. Besides, the “Test Endpoint (toxic side effects)” value in data set [5] (100 mg/kg), in data set [5] (300 mg/kg) and in data set [5] (1000 mg/kg) was “No obvious toxic” in each case.

On to `COc1c2cc(c(OCc3ccccc3)c1OC)CCCCC(O)CCc1ccc(O)c-2c1` (centres unmarked) [compound C, 5-benzyloxy myricanol], for which, in data set [1] (30 μM), the “effect on proliferation activity” value was “no significant effects”.

As to `COc1c2cc(c(O)c1OC)CCCC[C@@H](O)CCc1ccc(O)c-2c1` [myricanol, reference compound], the “inhibition of PGE2 secreted” value in data set [3] is “strong ability to inhibit”. Besides, in data set [3] (LPS + 20 μM, LPS alone 1154.90 ± 84.20, control −407.37 ± 57.67), the PGE2 was found to be 904.98 ± 18.02 pg/mL. Further, the “inhibition … of IBD-related COX2” value in data set [4] is “can inhibit”.

On to `C=CCOc1ccc2cc1-c1cc(c(OCC=C)c(OC)c1OC)CCCCC(=O)CC2` [compound F, 5,17-allyloxy myricanone], for which, in data set [1] (80 μM), the “effect on proliferation activity” value is recorded as “no significant effects”.

As to `COc1c2cc(c(OC(C)=O)c1OC)CCCCC(O)CCc1ccc(OC(C)=O)c-2c1` (centres unmarked) [compound A, 5,17-diacetoxy myricanol], in data set [1] (40 μM), the “effect on proliferation activity” value is “no significant effects”. Besides, in data set [2], the “inhibition … of RAW264.7 cells” value is listed as “very strong effects of inhibiting”. Further, in data set [3], the “inhibition of PGE2 secreted” value is “significant effect of inhibiting PGE2; also recorded: strong ability to inhibit”. For the same molecule, the “inhibition … of IBD-related COX2” value in data set [4] is listed as “can inhibit”. Also, the “Test Endpoint (toxic side effects)” value in data set [5] (100 mg/kg), in data set [5] (300 mg/kg) and in data set [5] (1000 mg/kg) was “No obvious toxic” each time.

With `C=CCOc1c2cc(c(OC)c1OC)-c1cc(ccc1O)CCC(O)CCCC2` (centres unmarked) [compound E, 5-allyloxy myricanol], the “effect on proliferation activity” value in data set [1] (30 μM) is recorded as “no significant effects”.
